# Data taken from ChEMBL document CHEMBL1201862, “PubChem BioAssay data set” (2004).
# Calls of active or inactive are those of the source.
# Key:
# [1] = target: Dual specificity tyrosine-phosphorylation-regulated kinase 1A (Rattus norvegicus, UniProt Q63470); type: biochemical, Homo sapiens
# [2] = Fluorescence-based cell-based high throughput dose response assay for inhibitors of the interaction of nucleotide-binding oligomerization domain containing 2 (NOD2) and the receptor-interacting serine-threonine kinase 2 (RIPK2).; type: functional, Homo sapiens
# [3] = target: T1, Sentrin-specific protease 7 (Homo sapiens, UniProt Q9BQF6); type: functional;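 further: Luminescence-based dose-response confirmation of ultra-high-throughput screening hits, measuring inhibition of SENP7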
# T1 sequence (Q9BQF6 whole entry): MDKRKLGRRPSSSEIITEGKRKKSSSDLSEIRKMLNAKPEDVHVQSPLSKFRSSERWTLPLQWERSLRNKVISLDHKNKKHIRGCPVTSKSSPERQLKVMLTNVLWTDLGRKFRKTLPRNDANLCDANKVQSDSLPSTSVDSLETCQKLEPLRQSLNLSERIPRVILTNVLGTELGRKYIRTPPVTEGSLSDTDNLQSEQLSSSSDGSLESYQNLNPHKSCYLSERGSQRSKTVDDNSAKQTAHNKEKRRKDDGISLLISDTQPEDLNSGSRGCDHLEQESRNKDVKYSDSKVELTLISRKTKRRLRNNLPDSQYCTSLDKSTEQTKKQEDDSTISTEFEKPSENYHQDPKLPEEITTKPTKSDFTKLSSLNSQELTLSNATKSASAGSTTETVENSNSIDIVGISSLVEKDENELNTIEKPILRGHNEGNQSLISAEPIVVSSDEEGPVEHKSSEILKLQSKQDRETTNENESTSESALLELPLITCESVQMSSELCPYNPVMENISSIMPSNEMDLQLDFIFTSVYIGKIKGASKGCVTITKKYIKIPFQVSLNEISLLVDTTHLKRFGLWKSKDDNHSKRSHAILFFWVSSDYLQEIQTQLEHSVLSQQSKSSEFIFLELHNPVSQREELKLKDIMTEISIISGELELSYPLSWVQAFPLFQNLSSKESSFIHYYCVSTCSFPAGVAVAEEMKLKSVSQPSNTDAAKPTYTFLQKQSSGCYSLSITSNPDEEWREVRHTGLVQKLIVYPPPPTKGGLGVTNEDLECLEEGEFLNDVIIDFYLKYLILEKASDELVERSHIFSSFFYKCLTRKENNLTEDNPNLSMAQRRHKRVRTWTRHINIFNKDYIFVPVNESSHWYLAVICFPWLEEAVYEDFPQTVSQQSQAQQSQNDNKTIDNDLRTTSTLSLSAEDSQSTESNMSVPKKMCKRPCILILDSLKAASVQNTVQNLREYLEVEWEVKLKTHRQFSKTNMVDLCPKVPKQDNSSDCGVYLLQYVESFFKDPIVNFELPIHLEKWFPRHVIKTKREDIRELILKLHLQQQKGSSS
# [4] = target: T2, Sentrin-specific protease 8 (Homo sapiens, UniProt Q96LD8); type: functional;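 further: luminescence read-out of SENP8 inhibition, dose-response confirmation following an ultra-high-throughput screen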
# T2 sequence (Q96LD8 whole entry): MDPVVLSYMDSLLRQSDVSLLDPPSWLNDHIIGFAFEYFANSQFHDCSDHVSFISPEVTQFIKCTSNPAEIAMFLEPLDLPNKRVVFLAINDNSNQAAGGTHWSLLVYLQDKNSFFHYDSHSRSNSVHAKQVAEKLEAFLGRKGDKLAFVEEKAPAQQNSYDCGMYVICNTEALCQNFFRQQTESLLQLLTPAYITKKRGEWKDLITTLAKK
# [5] = target: T3, Caspase-3 (Homo sapiens, UniProt P42574); type: functional;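 further: Dose-response selectivity test against caspase-3 for candidate inhibitors of sentrin-specific proteases (SENPs)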
# T3 sequence (P42574 whole entry): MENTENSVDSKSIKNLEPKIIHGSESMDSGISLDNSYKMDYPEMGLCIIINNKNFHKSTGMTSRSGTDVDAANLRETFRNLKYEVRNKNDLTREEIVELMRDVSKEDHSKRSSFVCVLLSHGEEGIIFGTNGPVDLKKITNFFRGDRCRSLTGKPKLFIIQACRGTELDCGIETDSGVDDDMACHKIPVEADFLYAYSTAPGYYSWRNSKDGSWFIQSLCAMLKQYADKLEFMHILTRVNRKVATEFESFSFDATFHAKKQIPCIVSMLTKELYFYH
# [6] = target: T4, Sentrin-specific protease 6 (Homo sapiens, UniProt Q9GZR1); type: functional;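 further: Luminescence-based dose-response confirmatory assay of SENP6 inhibition, following up an ultra-high-throughput screen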
# T4 sequence (Q9GZR1 whole entry): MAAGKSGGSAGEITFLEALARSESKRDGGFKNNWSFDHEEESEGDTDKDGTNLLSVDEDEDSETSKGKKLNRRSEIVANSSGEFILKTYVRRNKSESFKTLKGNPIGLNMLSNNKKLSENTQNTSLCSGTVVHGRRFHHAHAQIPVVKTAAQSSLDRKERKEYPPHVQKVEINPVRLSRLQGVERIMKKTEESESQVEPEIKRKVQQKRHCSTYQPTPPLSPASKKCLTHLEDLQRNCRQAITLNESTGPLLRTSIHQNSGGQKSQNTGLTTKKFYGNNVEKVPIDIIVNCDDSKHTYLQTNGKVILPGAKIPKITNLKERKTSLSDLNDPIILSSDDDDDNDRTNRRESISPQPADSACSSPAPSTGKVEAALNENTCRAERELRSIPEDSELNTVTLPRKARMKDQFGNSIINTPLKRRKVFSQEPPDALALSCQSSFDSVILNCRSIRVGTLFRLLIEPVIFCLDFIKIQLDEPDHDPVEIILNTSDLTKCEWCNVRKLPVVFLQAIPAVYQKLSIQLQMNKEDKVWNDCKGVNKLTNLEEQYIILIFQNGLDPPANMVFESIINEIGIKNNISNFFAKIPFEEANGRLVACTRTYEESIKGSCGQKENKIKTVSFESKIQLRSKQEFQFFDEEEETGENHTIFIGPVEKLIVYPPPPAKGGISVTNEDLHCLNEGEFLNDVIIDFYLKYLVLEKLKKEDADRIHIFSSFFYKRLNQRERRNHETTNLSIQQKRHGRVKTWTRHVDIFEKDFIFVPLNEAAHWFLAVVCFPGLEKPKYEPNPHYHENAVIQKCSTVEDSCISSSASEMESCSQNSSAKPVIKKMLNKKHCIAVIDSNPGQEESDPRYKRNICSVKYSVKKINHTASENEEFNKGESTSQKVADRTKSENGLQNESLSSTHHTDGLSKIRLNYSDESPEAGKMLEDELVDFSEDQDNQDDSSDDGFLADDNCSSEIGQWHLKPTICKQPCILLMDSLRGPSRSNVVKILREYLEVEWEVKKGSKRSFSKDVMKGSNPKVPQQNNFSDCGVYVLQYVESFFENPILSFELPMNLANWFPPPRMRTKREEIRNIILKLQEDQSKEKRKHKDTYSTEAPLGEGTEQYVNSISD
# [7] = intracellular Trypanosoma cruzi inhibitors in host cells – cell-based, plate reader, cherry-pick samples, set 3, dose response (AID 651818); type: functional;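 further: compounds incubated with infected cells for about four days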
# [8] = target: T5, High affinity choline transporter 1 (Homo sapiens, UniProt Q9GZV3); experiment: CHT inhibitors, dose response, cell-based, 5-point CRC, membrane potential dye (AID 504840); type: functional
# T5 sequence (Q9GZV3 whole entry): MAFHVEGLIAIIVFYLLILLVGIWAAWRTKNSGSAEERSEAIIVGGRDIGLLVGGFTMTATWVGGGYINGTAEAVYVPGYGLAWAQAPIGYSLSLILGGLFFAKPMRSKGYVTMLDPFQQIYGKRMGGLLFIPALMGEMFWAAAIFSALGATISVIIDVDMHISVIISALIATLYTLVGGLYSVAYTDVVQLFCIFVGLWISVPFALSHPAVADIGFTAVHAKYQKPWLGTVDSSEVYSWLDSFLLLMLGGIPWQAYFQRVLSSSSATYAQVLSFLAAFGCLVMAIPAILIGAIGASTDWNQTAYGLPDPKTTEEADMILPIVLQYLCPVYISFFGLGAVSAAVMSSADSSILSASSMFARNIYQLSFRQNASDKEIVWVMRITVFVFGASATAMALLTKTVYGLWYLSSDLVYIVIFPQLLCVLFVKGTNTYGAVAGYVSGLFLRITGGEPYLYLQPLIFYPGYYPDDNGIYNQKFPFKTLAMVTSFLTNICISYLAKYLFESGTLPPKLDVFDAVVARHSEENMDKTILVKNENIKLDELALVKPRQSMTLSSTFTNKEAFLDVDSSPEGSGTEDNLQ
# [9] = target: T6, Short transient receptor potential channel 4 (Mus musculus, UniProt Q9QUQ5); experiment: mouse TRPC4 channel activators, dose response, cell-based, HEK293 TRPC4/mu-opioid, Fluo-4 calcium (AID 434937); type: functional
# T6 sequence (Q9QUQ5 whole entry): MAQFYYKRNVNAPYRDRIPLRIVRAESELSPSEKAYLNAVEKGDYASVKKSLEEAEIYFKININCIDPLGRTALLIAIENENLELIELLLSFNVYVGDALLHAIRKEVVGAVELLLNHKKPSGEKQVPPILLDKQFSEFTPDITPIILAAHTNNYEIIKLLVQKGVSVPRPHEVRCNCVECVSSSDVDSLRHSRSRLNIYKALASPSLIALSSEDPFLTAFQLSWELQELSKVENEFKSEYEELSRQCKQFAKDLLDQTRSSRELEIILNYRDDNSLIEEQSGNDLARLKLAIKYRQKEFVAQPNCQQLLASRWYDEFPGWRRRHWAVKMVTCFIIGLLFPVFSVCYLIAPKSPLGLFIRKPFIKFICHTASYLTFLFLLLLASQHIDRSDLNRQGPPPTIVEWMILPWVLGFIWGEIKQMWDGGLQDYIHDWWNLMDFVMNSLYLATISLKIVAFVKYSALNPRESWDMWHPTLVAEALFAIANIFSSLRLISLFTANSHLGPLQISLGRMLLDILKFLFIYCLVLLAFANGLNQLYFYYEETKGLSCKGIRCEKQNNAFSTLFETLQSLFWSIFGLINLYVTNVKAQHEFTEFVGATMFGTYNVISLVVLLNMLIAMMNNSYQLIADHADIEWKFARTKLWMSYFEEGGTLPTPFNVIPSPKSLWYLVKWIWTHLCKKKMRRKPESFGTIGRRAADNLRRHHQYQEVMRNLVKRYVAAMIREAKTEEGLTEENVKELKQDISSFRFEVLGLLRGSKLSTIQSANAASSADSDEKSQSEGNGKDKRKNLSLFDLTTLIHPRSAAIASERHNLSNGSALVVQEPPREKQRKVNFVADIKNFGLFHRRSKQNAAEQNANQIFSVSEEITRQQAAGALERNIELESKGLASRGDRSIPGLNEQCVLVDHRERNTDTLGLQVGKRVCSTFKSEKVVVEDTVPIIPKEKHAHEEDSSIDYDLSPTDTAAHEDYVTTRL
# [10] = target: T7, Microphthalmia-associated transcription factor (Homo sapiens, UniProt O75030); experiment: TRPM1 promoter luciferase signal decrease, dose response, MITF inhibitor project, cell-based, SK-MEL-5, cherry-picked, set 3 (AID 493073); type: functional
# T7 sequence (O75030 whole entry): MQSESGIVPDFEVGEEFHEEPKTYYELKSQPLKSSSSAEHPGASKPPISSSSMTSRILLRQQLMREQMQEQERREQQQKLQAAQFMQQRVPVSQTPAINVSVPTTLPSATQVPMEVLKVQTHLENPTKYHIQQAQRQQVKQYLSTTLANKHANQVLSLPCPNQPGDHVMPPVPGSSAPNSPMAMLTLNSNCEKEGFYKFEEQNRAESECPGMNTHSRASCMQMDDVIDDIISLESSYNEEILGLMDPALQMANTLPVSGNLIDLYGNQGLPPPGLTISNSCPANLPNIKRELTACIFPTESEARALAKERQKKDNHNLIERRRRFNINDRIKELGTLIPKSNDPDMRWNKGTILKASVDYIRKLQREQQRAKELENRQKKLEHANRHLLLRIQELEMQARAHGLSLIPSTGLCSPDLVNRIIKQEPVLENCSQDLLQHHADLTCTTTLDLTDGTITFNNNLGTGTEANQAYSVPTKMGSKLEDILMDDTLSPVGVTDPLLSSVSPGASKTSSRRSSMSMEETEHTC
smiles,measurement,setting,value
CCCN(CCC)CCNC(=O)c1cc2c(=O)n(C)c3ccccc3c2n1C,AC50,[1],13.4 µM (active)
CC(=O)OCC12CC(OC(=O)CC(C)C)C(C)=CC1OC1C(O)C(OC(C)=O)C2(C)C12CO2 (stereo not drawn),IC50,[2],49.8 µM (inactive)
Cc1n[nH]c(O)c1N=Nc1ccc(Br)c(Cl)c1,IC50,[3],2.2 µM (active)
same,IC50,[4],2.43 µM (active)
same,IC50,[5],2.41 µM (active)
same,IC50,[6],3.79 µM (active)
C[C@@H]1CCCCO[C@H](CN(C)C(=O)Nc2ccccc2)[C@@H](C)CN([C@H](C)CO)C(=O)c2cc(NC(=O)Nc3ccc(C(F)(F)F)cc3)ccc2O1,AC50,[7],4.2 µM (active)
Cc1ccc(S(=O)(=O)N(C)C[C@H]2Oc3c(NC(=O)c4ccncc4)cccc3C(=O)N([C@H](C)CO)C[C@@H]2C)cc1,AC50,[7],6.3 µM (active)
C[C@@H]1CN([C@H](C)CO)C(=O)Cc2cc(NC(=O)Cc3ccccc3)ccc2O[C@@H]1CN(C)Cc1ccc(-c2ccccc2)cc1,AC50,[7],6.35 µM (active)
C[C@@H]1CN([C@@H](C)CO)C(=O)c2cccc(NS(=O)(=O)c3ccc(Cl)cc3)c2O[C@@H]1CN(C)Cc1ccc(-c2ccccc2)cc1,AC50,[7],2.97 µM (active)
N=C1C[N+](CC23CC4CC(CC(C4)C2)C3)=NO1,IC50,[8],13.5 µM (active)
same,EC50,[9],1.06 µM (active)
Cc1[nH]n(-c2ccccc2)c(=O)c1N=Nc1cccc(C(=O)O)c1,IC50,[3],15.2 µM (active)
same,IC50,[4],35.5 µM (active)
same,AC50,[10],8.07 µM (active)
same,IC50,[5],> 100 µM (inactive)
same,IC50,[6],21.5 µM (active)
COc1ccc2[nH]c3c(c2c1)CCNC3=O,AC50,[1],0.845 µM (active)
